Experimental findings from US7449545B2, “Antimicrobial bolisin peptides” (IPF Pharmaceuticals GmbH, priority 2001, dated 2008) are described below.

Ends that are not written are not given here.

What all share (format): cell-based
Assay [1] deals with Pseudomonas aeruginosa ATCC 9027. As to conditions: ATCC 9027, 2 h.
In assay [2] the test system is Candida albicans ATCC 10231. As to conditions: for minimum inhibition concentration: ATCC 10231, 2 h.
In assay [3] the test system is Streptococcus pneumoniae DSM 11865 (penicillin-resistant). To be noted: DSM 11865, 2 h. An outline of the steps:
(§1)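 Synthetic peptides were serially diluted in Mueller Hinton Broth following NCCLS M7-A3, inoculated with bacteria and incubated 18±2 h; the lowest concentration with no growth was taken as the MIC, in μg/ml.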

Assay [4] relates to Klebsiella pneumoniae ATCC 10031. To be noted: ATCC 10031, 2 h. An outline of the steps:
as §1

The test system of assay [5] is Staphylococcus aureus ATCC 25923. As to conditions: ATCC 25923, 2 h. An outline of the steps: as §1
Assay [6] relates to Escherichia coli ATCC 25922. As to conditions: ATCC 25922, 2 h. Put shortly:
as §1

In assay [7] the test system is Enterococcus faecalis ATCC 51299 (vancomycin-resistant). To be noted: ATCC 51299, 2 h. Put shortly: as §1
The test system of assay [8] is Pseudomonas aeruginosa ATCC 9027. As to conditions: Mueller Hinton Broth; complete growth inhibition not achieved.
The subject of assay [9] is Enterococcus faecalis ATCC 51299 (vancomycin-resistant). To be noted: Tryptic Soy Broth (3 g/l) with 150 mM sodium chloride; complete growth inhibition not achieved. As to the method: (§2) The antibiotic activity of bolisin analogues was examined by determining the minimum inhibition concentration. The minimum inhibition concentration of an analogue designates the lowest peptide concentration which is required to inhibit the growth of microorganisms completely after an incubation time of 18±2 h. This method allows to obtain a quantitative result about the antimicrobial potency of the peptides. These examinations were performed by analogy with the recommendations (M7-A3) edited by the NCCLS (National Committee for Clinical Laboratory Standards) by applying a dilution test in a liquid medium using chemically synthesized peptides (peptide sequences according to claims 1 to 3). Mueller Hinton Broth was used as the test medium according to the NCCLS recommendations unless indicated otherwise. […] The minimum inhibition concentrations are stated in [μg/ml].
(§3) A complete growth inhibition could not be achieved in this case. For determining the minimum inhibition concentration, the following microorganisms were used: • 1. Staphylococcus aureus ATCC 25923 • 2. Enterococcus faecalis ATCC 51299 (vancomycin-resistant) • 3. Streptococcus pneumoniae DSM 11865 (penicillin-resistant) • 4. Escherichia coli ATCC 25922 • 5. Pseudomonas aeruginosa ATCC 9027 • 6. Klebsiella pneumoniae ATCC 10031 • 7. Candida albicans ATCC 10231
(§4) Also for these examinations, the minimum inhibition concentration of the peptides against Gram-positive and Gram-negative microorganisms (microorganisms 1-6) was determined. Tryptic Soy Broth (3 g/l) with an addition of salt in physiological concentration (150 mM sodium chloride) was used as the test medium.
(§5) A complete growth inhibition could not be achieved in this case.

Assay [10] concerns Klebsiella pneumoniae ATCC 10031. As to conditions: Tryptic Soy Broth (3 g/l) with 150 mM sodium chloride; complete growth inhibition not achieved. On the procedure: as §2, §3, §4, §5
For assay [11], the system named is Streptococcus pneumoniae DSM 11865 (penicillin-resistant). To be noted: Tryptic Soy Broth (3 g/l) with 150 mM sodium chloride; complete growth inhibition not achieved. On the procedure: as §2, §3, §4, §5
Assay [12] relates to Staphylococcus aureus ATCC 25923. To be noted: Tryptic Soy Broth (3 g/l) with 150 mM sodium chloride; complete growth inhibition not achieved. As to the method:
as §2, §3, §4, §5

For the substance “YIVYKIRWAWKRKKALK-OH [BOL-61, YIVYKIRWAWKRKKALK]”, the minimum inhibition concentration was 300 µg/mL in assay [1]; 9.375 µg/mL in assay [2]; 25 µg/mL in assay [3]; 18.75 µg/mL in assay [4]; 37.5 µg/mL in [5]; 25 µg/mL in assay [6]. This substance also registered a minimum inhibition concentration in assay [7] of 25 µg/mL. Moreover, the “peptide concentration giving 75% inhibition of growth (value in parentheses)” value in assay [8] was found to be 75 µg/mL.

Take “YIVYKIRSARKRWK-OH [BOL-71, YIVYKIRSARKRWK]”: the “peptide concentration giving 75% inhibition of growth (value in parentheses)” value in assay [9] was “(300) μg/ml”; in assay [8], “(200) μg/ml”. Besides, the minimum inhibition concentration in assay [2] was determined as 300 µg/mL; in [3], 300 µg/mL; in [4] it was 300 µg/mL; in [5], 200 µg/mL; in [6], 300 µg/mL; in assay [7], 200 µg/mL.

Take “YIVYKIRRAWKRRKALK-OH [BOL-54, YIVYKIRRAWKRRKALK]”: the “peptide concentration giving 75% inhibition of growth (value in parentheses)” value in assay [10] was “(200) μg/ml”; in assay [8] it was “(25) μg/ml”. For the same substance, the minimum inhibition concentration stood at 18.75 µg/mL in assay [2]; 75 µg/mL in assay [3]; 18.75 µg/mL in assay [4]; 200 µg/mL in assay [5]; 100 µg/mL in assay [6]; 100 µg/mL in assay [7].

“YIVYKIRRARKRRKALK-OH [BOL-52, YIVYKIRRARKRRKALK]”: the “peptide concentration giving 75% inhibition of growth (value in parentheses)” value in assay [10] is recorded as “(300) μg/ml”; in [2] (Mueller Hinton Broth, complete growth inhibition not achieved), “(37.5) μg/ml”; in assay [8] it was “(37.5) μg/ml”. For the same substance, the minimum inhibition concentration in [3] was 200 µg/mL; in assay [4], 75 µg/mL; in [5] it was 300 µg/mL; in assay [6] it was greater than 300 µg/mL; in [7], 200 µg/mL.

In the case of “YIVYKIRSAWKRRKALK-OH [BOL-44, YIVYKIRSAWKRRKALK]”, the “peptide concentration giving 75% inhibition of growth (value in parentheses)” value in [9] is listed as “(300) μg/ml”; in assay [8], “(75) μg/ml”. Besides, the minimum inhibition concentration is 37.5 µg/mL in [2]; 200 µg/mL in [3]; 75 µg/mL in [4]; 150 µg/mL in [5]; 200 µg/mL in assay [6]; greater than 300 µg/mL in assay [7].

Regarding “KYIVYKIRSAWKRRKALK-OH [BOL-86, KYIVYKIRSAWKRRKALK]”, the “peptide concentration giving 75% inhibition of growth (value in parentheses)” value in [11] was “(300) μg/ml”; in [12] it was “(300) μg/ml”; in assay [8], “(18.75) μg/ml”. The minimum inhibition concentration in assay [2] turned out to be 18.75 µg/mL; in [3], 150 µg/mL; in assay [4] it was 50 µg/mL; in assay [5] it was 75 µg/mL; in assay [6] it was 150 µg/mL; in assay [7] it was 200 µg/mL.

On to “YIVWKIRSARKRWKALK-OH [BOL-81, YIVWKIRSARKRWKALK]”, for which the “peptide concentration giving 75% inhibition of growth (value in parentheses)” value was “(75) μg/ml” in assay [11], “(300) μg/ml” in [12] and “(18.75) μg/ml” in assay [8]. Moreover, the minimum inhibition concentration in [2] turned out to be 75 µg/mL; in assay [3], 75 µg/mL; in [4] it was 25 µg/mL; in assay [5], 300 µg/mL; in assay [6] it was 300 µg/mL; in [7], 150 µg/mL.

Turning to “YIVYKIRWAWKRRKALK-OH [BOL-48, YIVYKIRWAWKRRKALK]”, the minimum inhibition concentration is 200 µg/mL in assay [1]; 9.375 µg/mL in assay [2]; 9.375 µg/mL in assay [3]; 4.7 µg/mL in [4]; 9.375 µg/mL in assay [5]; 18.75 µg/mL in [6]. This substance also had a minimum inhibition concentration in assay [7] of 12.5 µg/mL. In assay [8], the “peptide concentration giving 75% inhibition of growth (value in parentheses)” value amounted to 6.5 µg/mL.
